pIC50: −log10 of the molar value. Values joined by “and” are separate entries in the source; they are usually repeats but may differ in a detail not shown here. Identical values can stand only once. “Also recorded” adds a separate entry of the source. Like-named read-outs stand apart in the source and are kept apart here.
Tests used:
[1] = test system: leukemia cell lines MOLM-13, OCI-AML4, and SKM-1; assay: Growth inhibition assays, pinometostat with RAS pathway inhibitors; format: cell-based; conditions: pinometostat 3 μM, 300 nM, 150 nM or 75 nM plus SCH772984, Trametinib or Sorafenib; FIG. 13
Procedure: Growth inhibition assays were performed using leukemia cell lines to determine whether there is any synergy between pinometostat and RAS pathway inhibitors. The leukemia cell lines used were MOLM-13, OCI-AML4, and SKM-1. For these studies, different RAS pathway inhibitors were used, including SCH772984 (e.g., an ERK inhibitor), Trametinib (e.g., a MEK inhibitor), and Sorafenib (e.g., a Raf kinase inhibitor).

[2] = Adult Phase 1 study: pharmacokinetics; format: in vivo, human; conditions: adults, CIV
Procedure: (§1) This open label dose escalation/expansion study of pinometostat enrolled patients ≥18 years (yrs) with R/R leukemia (NCT01684150). In the dose-escalation phase, patients with AML, ALL, mixed lineage leukemia (MLL), myelodysplastic syndrome, myeloproliferative neoplasm or chronic myeloid leukemia were eligible. Eligibility in the two expansion cohorts: 90 mg/m^2 (n=17) and 54 mg/m^2 (n=6), was restricted to patients with MLL-r or MLL-partial tandem duplication (MLL-PTD). Pinometostat was given via continuous intravenous infusion (CIV) for 21 of 28 day cycles in the dose escalation phase and CIV for 28 of 28 day cycles in the expansion phase, until disease progression or unacceptable toxicity. All patients underwent serial collection of PK and peripheral blood mononuclear cells (PBMC) for PD. Leukemic blasts were isolated from PBMCs using flow cytometry and quantified for dimethylation of H3K79 (H3K79-me2) by ChIP-Seq.

[3] = test system: H3K79-me2 at MLL-r target genes HOXA9 and MEIS1; assay: Pediatric Phase 1 study: H3K79-me2 ChIP-Seq in leukemic blasts; format: in vivo, human; conditions: 2 of 2 pediatric patients analyzed
Procedure: (§2) An open label dose escalation study of pinometostat was performed in patients (pts) aged 3 months to 18 […] leukemia (NCT02141828). Pinometostat was administered via continuous intravenous infusion until disease progression or unacceptable toxicity. Patients were assigned to one of two age-based dose escalation […] developed from simulations of pediatric exposures using a previously reported physiologically-based PK (PBPK) model (Waters, 2014). All patients underwent serial collection of PK and peripheral blood mononuclear cells (PBMC) for PD. Leukemic blasts were isolated from PBMCs using flow cytometry and quantified for di-methylation of H3K79 (H3K79-me2) by ChIP-Seq.

[4] = Pediatric Phase 1 study: pharmacokinetics; format: in vivo, human
Procedure: as §2

[5] = test system: MLL-rearranged cells and xenografts; conditions: cited from earlier work
[6] = test system: 14 cell lines (MLL-r or MLL-PTD); assay: Cell proliferation in 14 cell lines; format: cell-based
Procedure: RNA and DNA were isolated from PBMCs and/or bone marrow collected prior to treatment from 18 patients enrolled in the adult pinometostat Phase 1 study (CT.gov: NCT01684150), at the following doses 24 (n=2), 36 (n=3), 54 (n=6), 80 (n=3) and 90 mg/m^2/day doses (n=4). mRNA transcript abundance was assessed using whole genome RNASeq and DNA variants were determined using a 194 gene panel, MyAML (Genection Inc.). Correlations of transcript abundance and DNA variants detected with categorical (responder=CR or PR [n=3], or no response [n=15]) and continuous response parameters (time on study (“TOS”), mean=59 days: range=8-196 days) were performed. For cell lines, whole genome RNASeq data was generated from 14 cell lines (MLL-r or MLL-PTD) with a range of in vitro sensitivity to pinometostat (cell proliferation IC50 2 nM to >10 μM) and RNA transcripts identified as correlated with IC5o were submitted for pathway analysis.

[7] = Pediatric Phase 1 study: safety; format: in vivo, human; conditions: children with R/R leukemia
Procedure: as §2, with “ChIP-Seq. As of Jun. 28, 2015, 11 patients have enrolled in the dose escalation of the study consisting of 10 patients (6 patients at 70 mg/m^2/day, 4 patients at 90 mg/m^2/day) in the older age cohort (1 to 18 yr) and 1 patient (45 mg/m^2/day) in the younger age cohort (<1 yr).” for “ChIP-Seq.”

[8] = test system: MLL-rearranged cells; assay: Pre-clinical study with MLL-rearranged and non-MLL rearranged cells (FIG. 3); format: cell-based; conditions: MLL-rearranged vs non-MLL rearranged cells
[9] = test system: H3K79-me2 at MLL-r target genes HOXA9 and MEIS1; assay: Adult Phase 1 study: H3K79-me2 ChIP-Seq in leukemic blasts; format: in vivo, human; conditions: 9 patients, 90 mg/m^2 expansion cohort
Procedure: as §1

[10] = biological target: DOT1L (Homo sapiens, UniProt Q8TEK3); assay: DOT1L affinity; format: binding
[11] = Adult Phase 1 dose escalation/expansion study: safety and clinical response; format: in vivo, human; design: key to clinical response, per patient: ▪: Complete Responder (Patient Nos. 16 and 18); ▴: Biological Effect (Leukocytosis) (Patient Nos. 1, 7, 13, 15, and 17); ●: Non-responder (Patient Nos. 2-6, 8-12, and 14)
From the text: This open label dose escalation/expansion study of pinometostat enrolled patients ≥18 years (yrs) with R/R leukemia (NCT01684150). In the dose-escalation phase, patients with AML, ALL, mixed lineage leukemia (MLL), myelodysplastic syndrome, myeloproliferative neoplasm or chronic myeloid leukemia were eligible. […] Pinometostat was given via continuous intravenous infusion (CIV) for 21 of 28 day cycles in the dose escalation phase and CIV for 28 of 28 day cycles in the expansion phase, until disease progression or unacceptable toxicity. All patients underwent serial collection of PK and peripheral blood mononuclear cells (PBMC) for PD. […] As of Jun. 28, 2015, 49 patients have enrolled in the dose escalation and expansion phases. […] Correlations of transcript abundance and DNA variants detected with categorical (responder=CR or PR [n=3], or no response [n=15]) and continuous response parameters (time on study (“TOS”), mean=59 days: range=8-196 days) were performed.

[12] = Stein 2014 ASH abstract 387; cited from earlier work
[13] = 18 adult patients of biomarker analysis
[14] = dose level 24 mg/m^2, listed as pinometostat
[15] = dose level 36 mg/m^2, listed as pinometostat
[16] = dose level 54 mg/m^2, listed as pinometostat
[17] = dose level 90 mg/m^2, listed as pinometostat

DOT1L, sequence (Q8TEK3 whole entry): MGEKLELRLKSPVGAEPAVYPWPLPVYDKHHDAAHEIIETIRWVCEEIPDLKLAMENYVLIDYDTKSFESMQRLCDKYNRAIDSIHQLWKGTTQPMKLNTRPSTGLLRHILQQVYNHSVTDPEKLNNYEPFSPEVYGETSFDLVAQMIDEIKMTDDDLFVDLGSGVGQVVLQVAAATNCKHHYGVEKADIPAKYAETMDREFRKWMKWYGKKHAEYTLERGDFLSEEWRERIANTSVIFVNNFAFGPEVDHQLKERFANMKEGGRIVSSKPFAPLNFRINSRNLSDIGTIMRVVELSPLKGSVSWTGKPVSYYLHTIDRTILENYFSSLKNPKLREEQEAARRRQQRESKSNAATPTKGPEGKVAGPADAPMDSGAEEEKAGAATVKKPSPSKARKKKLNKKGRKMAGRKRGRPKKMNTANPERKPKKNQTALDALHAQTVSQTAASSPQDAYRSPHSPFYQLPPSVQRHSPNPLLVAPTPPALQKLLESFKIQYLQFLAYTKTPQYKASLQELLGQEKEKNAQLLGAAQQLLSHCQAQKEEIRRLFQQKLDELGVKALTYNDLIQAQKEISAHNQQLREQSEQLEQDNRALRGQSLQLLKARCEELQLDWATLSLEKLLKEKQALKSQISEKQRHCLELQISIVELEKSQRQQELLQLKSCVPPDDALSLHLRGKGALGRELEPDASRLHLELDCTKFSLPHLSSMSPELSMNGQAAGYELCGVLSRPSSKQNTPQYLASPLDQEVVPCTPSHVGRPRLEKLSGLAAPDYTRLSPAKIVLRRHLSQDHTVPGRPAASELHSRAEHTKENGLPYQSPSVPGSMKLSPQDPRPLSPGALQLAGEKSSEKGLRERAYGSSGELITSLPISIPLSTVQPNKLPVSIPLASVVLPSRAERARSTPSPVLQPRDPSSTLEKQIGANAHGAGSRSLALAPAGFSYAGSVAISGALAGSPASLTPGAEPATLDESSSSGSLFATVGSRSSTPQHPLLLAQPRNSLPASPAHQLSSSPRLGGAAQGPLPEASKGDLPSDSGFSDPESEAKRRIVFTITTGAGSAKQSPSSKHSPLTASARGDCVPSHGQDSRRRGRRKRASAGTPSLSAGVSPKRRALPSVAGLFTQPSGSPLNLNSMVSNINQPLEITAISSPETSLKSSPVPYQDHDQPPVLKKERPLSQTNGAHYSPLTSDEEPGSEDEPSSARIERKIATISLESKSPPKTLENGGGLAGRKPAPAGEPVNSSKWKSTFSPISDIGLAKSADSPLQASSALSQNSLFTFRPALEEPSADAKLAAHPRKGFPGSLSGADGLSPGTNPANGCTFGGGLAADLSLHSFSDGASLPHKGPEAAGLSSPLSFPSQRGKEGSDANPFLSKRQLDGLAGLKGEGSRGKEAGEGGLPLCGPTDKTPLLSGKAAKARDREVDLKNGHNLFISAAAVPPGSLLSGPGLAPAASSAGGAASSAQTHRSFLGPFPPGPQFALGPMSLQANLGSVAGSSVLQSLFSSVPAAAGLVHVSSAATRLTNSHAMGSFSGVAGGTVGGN

O=C(Nc1ccc2[nH]nc(-c3ccncc3)c2c1)[C@@H]1CCN(CC(=O)N2CCN(c3ccc(-c4ncccn4)cc3)CC2)C1 [SCH772984, reference compound]
effect on inhibition of cell growth, combination of RAS pathway inhibitor and pinometostat [1]: synergistic effect

CNC(=O)c1cc(Oc2ccc(NC(=O)Nc3ccc(Cl)c(C(F)(F)F)c3)cc2)ccn1 [Sorafenib, reference compound]
effect on inhibition of cell growth, combination of RAS pathway inhibitor and pinometostat [1]: synergistic effect

CC(C)N(C[C@H]1O[C@@H](n2cnc3c(N)ncnc32)[C@H](O)[C@@H]1O)[C@H]1C[C@@H](CCc2nc3cc(C(C)(C)C)ccc3[nH]2)C1 [Compound A2, (2R,3R,4S,5R)-2-(6-amino-9H-purin-9-yl)-5-((((1r,3S)-3-(2-(5-(tert-butyl)-1H-benzo[d]imidazol-2yl)ethyl)cyclobutyl)(isopropyl)amino)methyl)tetrahydrofuran-3,4-diol]
attainment of steady-state plasma concentrations (Css) [2]: Day 1
dose proportionality of PK [2]: Dose proportional PK
range of inhibition of H3K79-me2 methylation at HOXA9 and MEIS1 [3]: 44-72%
Steady-state CSF concentrations ([4]; children): < 2 ng/mL
Steady-state plasma concentrations (Css) ([4]; children ≥1 yr, 70 and 90 mg/m^2 doses): 800 to 1600 ng/mL
effect on inhibition of cell growth, combination of RAS pathway inhibitor and pinometostat [1]: synergistic effect; also recorded: synergistic cell killing
MLL target gene expression [5]: decreased
histone H3K79 methylation [5]: reduced
leukemia cell kill ([5]; listed as Pinometostat): induced selective leukemia cell kill
leukemia cell kill ([5]; listed as pinometostat): selective leukemia cell kill
pIC50 ([6]; least sensitive of 14 cell lines, read-out: cell proliferation IC50, upper end of range): < 5.00
pIC50 ([6]; most sensitive of 14 cell lines, read-out: cell proliferation IC50, lower end of range): 8.70
safety profile [7]: acceptable safety profile
killing of genetically defined cancer cells [8]: selective killing
median inhibition of H3K79-me2 methylation at HOXA9 and MEIS1 [9]: 61%
range of inhibition of H3K79-me2 methylation at HOXA9 and MEIS1 [9]: 13- 91%
affinity for DOT1L [10]: sub-nanomolar
time on study (TOS), mean [11, 13]: 59 days
time on study (TOS), range [11, 13]: 8 to 196 days
safety profile ([11]; CIV, adults with R/R leukemia): acceptable safety profile
differentiation effect in patients with MLL-r ([11]; FIG. 8, micrographs of blood and bone marrow): leads to a differentiation effect
drug-related treatment discontinuations ([11]; adult MLL-r and MLL-PTD, 90 mg/m^2/day uninterrupted, expansion stage): no drug-related treatment discontinuations
objective response: PR ([11]; adults, 49 patients): 1 pt
objective response: cytogenetic CR (MLL negative by FISH) ([11]; adults, 49 patients): 1 pt
objective response: morphologic CR ([11]; adults, 49 patients): 1 pt
resolution of leukemia cutis ([11]; adults, 49 patients): 3 pts
patients with leukocytosis or differentiation ([11]; adults, absolute monocyte and neutrophil 50% above baseline and above upper limit of normal): Nine
Time on Study, per patient [11, 14]: 49 days and 8 days
clinical response, per patient [11, 14]: ● and ▴
Time on Study, per patient [11, 15]: 33 days and 65 days and 21 days
clinical response, per patient [11, 15]: ▴ (2×) and ●
Time on Study, per patient [11, 16]: 49 days and 110 days and 196 days and 21 days
clinical response, per patient [11, 16]: ● (2×) and ▪ (2×)
clinical response, per patient ([11]; dose level 80 mg/m^2): ●
Time on Study, per patient ([11]; dose level 80 mg/m^2, listed as pinometostat): 41 days and 82 days
Time on Study, per patient [11, 17]: 31 days and 38 days and 50 days and 86 days and 136 days and 15 days and 28 days
clinical response, per patient [11, 17]: ● (5×) and ▴ (2×)
clinical activity, preliminary results of the adult trial [12]: complete remissions in a subset of patients
